Reference: patent US9012611B2, “Use of 3,8,12,14, 17,20-oxo-substituted pregnene glycosides in the preparation of healthcare products, food additives and pharmaceuticals for the inhibition of appetite” (Institute of Materia Medica, Chinese Academy of Sciences, priority 2010, dated 2015)
Structures can show the parent of a compound that is named as a salt.

Tests used:
female Wistar rat = test: Animal test in vivo: average food consumption (appetite inhibition); settings: positive control 15 mg/kg
Description: (§1) 6-7 weeks-old female Wistar rat (purchased from Shanghai Laboratory Animal Center of Chinese Academy of Sciences)(weight: 110-150 g) was raised alone in suspended metal cage. After the experimental rat was obtained, it was checked to make sure whether they were abnormal or had obvious disease signs. The rat can freely obtain the drinking-water and feed for rodent (RM1(E)AQC). The feeding cage was controlled to receive 12 h illumination (from 07:00 to 19:00) and to be in a dark environment for 12 h, and the room temperature and relative humidity were controlled to be 21±3° C. and 55±15% respectively and not to deviate the upper and lower limit. The rats were randomly divided into groups depending on the body weight according to random number table to make the average weight in each group are approximately equal. Before the test, the rats were pre-trained suitably for one week (from −7th day to −1st day) during which the consumptions of feed and drinking water were recorded.
(§2) Each group of drug to be tested, positive control group, and blank control group consisted of 5 rats, respectively. The tested drug and positive control drug were mixed with wheaten starch before the administration and formulated to suspension with required doses according to 10 mL/kg of administration volume. The positive control drug was sibutramine hydrochloride and the administration dosage was 15 mg/kg body weight. In the blank control group, only equal amount of starch was used to formulate suspension for administration by […] in a same volume. The administration time is the 1st day, 2nd day and 3rd day. The body weight of the rat, the consumption of the feed (the weight of the feeding hopper) and consumption of the drinking water (bottle weight) were recorded from the −7th day to the 7th day.

[1] = Animal test in vivo: average body weight; set-up: species or system rat; settings: positive control 15 mg/kg
Description: as §1, §2

In the case of `CC(C)CC(N(C)C)C1(c2ccc(Cl)cc2)CCC1` (centres unmarked) [Positive control, sibutramine hydrochloride, reference compound], the Average food consumptions (female Wistar rat; 1st day (administration day), Table 1, crude extract 300 mg/kg, others 50 mg/kg) is reported as 5.0 g, the Average food consumptions (female Wistar rat; 1st day (administration day), Table 4, wilfosides 50 mg/kg) is reported as 4 g and the Average food consumptions (female Wistar rat; 2nd day (administration day), Table 1, crude extract 300 mg/kg, others 50 mg/kg) is reported as 8.5 g. For the same compound, the Average food consumptions (female Wistar rat; 2nd day (administration day), Table 4, wilfosides 50 mg/kg) was 7.6 g, the Average food consumptions (female Wistar rat; 3rd day (administration day), Table 1, crude extract 300 mg/kg, others 50 mg/kg) was 13.0 g and the Average food consumptions (female Wistar rat; 3rd day (administration day), Table 4, wilfosides 50 mg/kg) was 8.4 g. It also gave an Average food consumptions (female Wistar rat; 4th day (after administration on days 1-3), Table 1, crude extract 300 mg/kg, others 50 mg/kg) of 14.0 g, an Average food consumptions (female Wistar rat; 4th day (after administration on days 1-3), Table 4, wilfosides 50 mg/kg) of 10 g and an Average food consumptions (female Wistar rat; 5th day (after administration on days 1-3), Table 1, crude extract 300 mg/kg, others 50 mg/kg) of 13.5 g. For the same compound, the Average food consumptions (female Wistar rat; 5th day (after administration on days 1-3), Table 4, wilfosides 50 mg/kg) was 12.8 g, the Average food consumptions (female Wistar rat; 6th day (after administration on days 1-3), Table 1, crude extract 300 mg/kg, others 50 mg/kg) was 14.5 g and the Average food consumptions (female Wistar rat; 6th day (after administration on days 1-3), Table 4, wilfosides 50 mg/kg) was 14.4 g. It also gave an Average food consumptions (female Wistar rat; 7th day (after administration on days 1-3), Table 1, crude extract 300 mg/kg, others 50 mg/kg) of 17.5 g, an Average food consumptions (female Wistar rat; 7th day (after administration on days 1-3), Table 4, wilfosides 50 mg/kg) of 14.8 g and an Average food consumptions (female Wistar rat; −1st day (before administration), Table 1, crude extract 300 mg/kg, others 50 mg/kg) of 14.5 g. For the same compound, the Average food consumptions (female Wistar rat; −1st day (before administration), Table 4, wilfosides 50 mg/kg) was 13.2 g, the Average food consumptions (female Wistar rat; −2nd day (before administration), Table 1, crude extract 300 mg/kg, others 50 mg/kg) was 14.5 g and the Average food consumptions (female Wistar rat; −2nd day (before administration), Table 4, wilfosides 50 mg/kg) was 16 g. The Average food consumptions (female Wistar rat; −3rd day (before administration), Table 1, crude extract 300 mg/kg, others 50 mg/kg) was 15.5 g, the Average food consumptions (female Wistar rat; −3rd day (before administration), Table 4, wilfosides 50 mg/kg) was 12.8 g and the Average food consumptions (female Wistar rat; −4th day (before administration), Table 1, crude extract 300 mg/kg, others 50 mg/kg) was 14.5 g. It also gave an Average food consumptions (female Wistar rat; −4th day (before administration), Table 4, wilfosides 50 mg/kg) of 12.8 g, an Average food consumptions (female Wistar rat; −5th day (before administration), Table 1, crude extract 300 mg/kg, others 50 mg/kg) of 14.5 g and an Average food consumptions (female Wistar rat; −5th day (before administration), Table 4, wilfosides 50 mg/kg) of 14.8 g. The Average food consumptions (female Wistar rat; −6th day (before administration), Table 1, crude extract 300 mg/kg, others 50 mg/kg) was 15.3 g, the Average food consumptions (female Wistar rat; −6th day (before administration), Table 4, wilfosides 50 mg/kg) was 10.8 g and the Average food consumptions (female Wistar rat; −7th day (before administration), Table 1, crude extract 300 mg/kg, others 50 mg/kg) was 11.5 g. The Average food consumptions (female Wistar rat; −7th day (before administration), Table 4, wilfosides 50 mg/kg) was 10.4 g, the Average body weight ([1]; 1st day (administration day), Table 3, crude extract 300 mg/kg, others 50 mg/kg) was 142.4 g and the Average body weight ([1]; 1st day (administration day), Table 6, wilfosides 50 mg/kg) was 133.2 g. It also gave an Average body weight ([1]; 2nd day (administration day), Table 3, crude extract 300 mg/kg, others 50 mg/kg) of 140 g, an Average body weight ([1]; 2nd day (administration day), Table 6, wilfosides 50 mg/kg) of 128.4 g and an Average body weight ([1]; 3rd day (administration day), Table 3, crude extract 300 mg/kg, others 50 mg/kg) of 141.6 g. It also gave an Average body weight ([1]; 3rd day (administration day), Table 6, wilfosides 50 mg/kg) of 128.4 g, an Average body weight ([1]; 4th day (after administration on days 1-3), Table 3, crude extract 300 mg/kg, others 50 mg/kg) of 146.8 g and an Average body weight ([1]; 4th day (after administration on days 1-3), Table 6, wilfosides 50 mg/kg) of 132.4 g. The Average body weight ([1]; 5th day (after administration on days 1-3), Table 3, crude extract 300 mg/kg, others 50 mg/kg) was 148.4 g, the Average body weight ([1]; 5th day (after administration on days 1-3), Table 6, wilfosides 50 mg/kg) was 135.6 g and the Average body weight ([1]; 6th day (after administration on days 1-3), Table 3, crude extract 300 mg/kg, others 50 mg/kg) was 153.6 g. It also gave an Average body weight ([1]; 6th day (after administration on days 1-3), Table 6, wilfosides 50 mg/kg) of 138.4 g, an Average body weight ([1]; 7th day (after administration on days 1-3), Table 3, crude extract 300 mg/kg, others 50 mg/kg) of 158.8 g and an Average body weight ([1]; 7th day (after administration on days 1-3), Table 6, wilfosides 50 mg/kg) of 142 g. The Average body weight ([1]; −1st day (before administration), Table 3, crude extract 300 mg/kg, others 50 mg/kg) was 154.8 g, the Average body weight ([1]; −1st day (before administration), Table 6, wilfosides 50 mg/kg) was 145.6 g and the Average body weight ([1]; −2nd day (before administration), Table 3, crude extract 300 mg/kg, others 50 mg/kg) was 152.8 g. The Average body weight ([1]; −2nd day (before administration), Table 6, wilfosides 50 mg/kg) was 144.4 g, the Average body weight ([1]; −3rd day (before administration), Table 3, crude extract 300 mg/kg, others 50 mg/kg) was 152 g and the Average body weight ([1]; −3rd day (before administration), Table 6, wilfosides 50 mg/kg) was 140.8 g. For the same compound, the Average body weight ([1]; −4th day (before administration), Table 3, crude extract 300 mg/kg, others 50 mg/kg) was 149.6 g, the Average body weight ([1]; −4th day (before administration), Table 6, wilfosides 50 mg/kg) was 138 g and the Average body weight ([1]; −5th day (before administration), Table 3, crude extract 300 mg/kg, others 50 mg/kg) was 145.6 g. The Average body weight ([1]; −5th day (before administration), Table 6, wilfosides 50 mg/kg) was 135.6 g, the Average body weight ([1]; −6th day (before administration), Table 3, crude extract 300 mg/kg, others 50 mg/kg) was 144.8 g and the Average body weight ([1]; −6th day (before administration), Table 6, wilfosides 50 mg/kg) was 132.8 g. For the same compound, the Average body weight ([1]; −7th day (before administration), Table 3, crude extract 300 mg/kg, others 50 mg/kg) was 140.4 g and the Average body weight ([1]; −7th day (before administration), Table 6, wilfosides 50 mg/kg) was 132 g.
